Laboratory results published in publication PMC10067601, “Identification of a peptide ligand for human ALDH3A1 through peptide phage display: Prediction and characterization of protein interaction sites and inhibition of ALDH3A1 enzymatic activity” (Frontiers in Molecular Biosciences, 2023).
“Also recorded” adds a separate entry of the source.

Legend:
[1] = molecular target: T1, human recombinant ALDH3A1 (Homo sapiens, UniProt P30838); experiment: ALDH3A1 enzymatic assay, benzaldehyde oxidation; assay type: biochemical; settings: for Enzymatic Activity, AVERAGE %: mean of triplicates, STDEV % in r34
T1 construct: 6xHis (C); made in house; host or cells: E. coli, with chaperone co-expression (pG-KJE8 plasmid)
T1 sequence (P30838 1-453): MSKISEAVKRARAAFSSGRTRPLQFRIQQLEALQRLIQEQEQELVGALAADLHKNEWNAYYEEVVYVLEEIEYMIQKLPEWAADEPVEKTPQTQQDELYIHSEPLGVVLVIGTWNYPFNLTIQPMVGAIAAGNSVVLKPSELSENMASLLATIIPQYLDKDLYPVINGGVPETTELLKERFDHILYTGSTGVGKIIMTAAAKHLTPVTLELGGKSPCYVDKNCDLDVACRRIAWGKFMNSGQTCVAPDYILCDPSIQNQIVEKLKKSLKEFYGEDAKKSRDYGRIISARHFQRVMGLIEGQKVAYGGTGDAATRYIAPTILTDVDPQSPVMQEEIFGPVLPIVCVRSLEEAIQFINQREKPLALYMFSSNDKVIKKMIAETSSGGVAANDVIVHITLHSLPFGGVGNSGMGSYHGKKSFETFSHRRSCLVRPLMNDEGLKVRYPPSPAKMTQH
Method: The ability of ALDH3A1 to oxidize benzaldehyde in the presence of P1 was estimated by monitoring the production of NADH as described earlier with minor modifications ([Voulgaridou et al., 2013]). Human recombinant ALDH3A1 was combined with P1 and diluted in Milli-Q water, at 1:1,000. The final reaction was placed in a 0.5 mL quartz cuvette containing 50 mM Tris-HCl pH 8.5, 50 mM 2-Mercaptoethanol, 1.5 mM […], 20 nM ALDH3A1, 20 μM P1, and 1 mM Benzaldehyde. The reaction was initiated by the addition of the benzaldehyde substrate and was monitored at 340 nm for 5 min using a spectrophotometer (Libra S22, Biochrom Ltd, Cambridge, United Kingdom). In the case of CB29, the final reaction contained 40 μM CB29. Enzymatic activity was calculated as dOD/dT∗molarextinctioncoeiffcient∗pathcorrection∗enzyme^′sconcentrationinfinalreaction where, dT = minutes, molar extinction coefficient = 6220 M^-1/cm, path correction = 1 cm.
All experiments were conducted in triplicates and presented as % of the control’s enzymatic activity. As a control, the final reaction contained the respective Milli-Q water volume without P1 or CB29.
At least three independent experiments were performed for each condition tested. The values are expressed as the mean ± standard deviation (SD). Statistical analysis was performed with Graph Pad Prism software (version 9.4.1) (Graph Pad Inc., La Jolla, CA, United States). For all assays, statistical differences between groups were evaluated either by Student’s t-test or ANOVA, for multiple comparisons, followed by Dunnett’s or Tukey’s test. A level of p < 0.01 was considered statistically significant.

[2] = molecular target: T1, human recombinant ALDH3A1; experiment: Peptide ELISA, P1 coated, serially diluted ALDH3A1; assay type: binding
Method: An ELISA with the synthetic peptide P1 was performed as described ([Thermo Scientific, 2010]). P1 (50 μg/mL) diluted in Coating Buffer (0.2 M sodium carbonate/bicarbonate, pH 9.4) was coated overnight at 4°C under agitation. After three washes with TBST (25 mM Tris, 0.15 M sodium chloride, pH 7.2 containing 0.1% Tween 20), the wells were blocked with 300 μL per well with Blocking Buffer (TBST containing 4% w/v BSA) overnight at 4°C under agitation. After another three washes with TBST, 100 μL of 2-fold serial dilutions of ALDH3A1 in Blocking Buffer were added in each well and the plate was incubated for 1 h at RT under gentle agitation. Following four washes with TBST, 100 μL of rabbit anti-ALDH3A1 antibody, diluted 1:1,000 in Blocking Buffer, were added and the plate was incubated for 2 h at RT under gentle agitation. After the plate was washed 4 times with TBST, it was incubated with 100 μL of anti-rabbit IgG horseradish-peroxidase conjugated and diluted 1:5,000 in Blocking Buffer, for 2 h at RT. Then, the plate was washed 6 times with TBST, and 100 μL of ABTS [2,2′-azino-bis(3-ethylbenzothiazoline-6-sulfonic acid)] solution (ready-to-use) were added. After 1 h of incubation in darkness at RT under agitation, the plate was measured at 405 nm, with wavelength correction at 650 nm, using an ELISA plate reader (EnSpire Multimode Plate Reader, Perkin Elmer, Waltham, MA, United States). During wash steps, liquids were dispersed in the sink, the plate was tapped vigorously on a paper towel, refilled with Wash Buffer, and incubated for 5 min at RT under agitation.
Next, peptide ELISA was performed to test whether the synthetic peptide P1 interacts with the hALDH3A1 protein. Specifically, P1 was coated in abundance in a 96-well plate and subsequently, hALDH3A1 was added to each well in serial dilutions. For detecting the putative peptide/ALDH3A1 interaction a rabbit anti-ALDH3A1 antibody along with a secondary horseradish peroxidase-conjugated anti-rabbit antibody were used in a sandwich ELISA. In each step, the excessive, unbound ALDH3A1 or antibody was removed through repetitive washes, while a ready-to-use ABTS solution was used as a colorimetric substrate for detecting the presence of horseradish peroxidase activity.

[3] = 20 μM P1 (n = 4) or 40 μM CB29 (n = 3)
[4] = X is log(dilution of ALDH3A1), P1 50 μg/ml coated

## WPTYVSPFRSPP [P1, …, prevailing 12-mer phage display peptide, synthesised by Genecust]
[1]; 20 μM P1 (4 experiments) or 40 μM CB29 (3 experiments), 1 mM benzaldehyde, 20 nM ALDH3A1, pH 8.5, 340 nm, 5 min
  Enzymatic activity, % of control, AVERAGE of experiments: 53.6795%
[1]; [3]
  25% Percentile, % of control activity: 48.44
  75% Percentile, % of control activity: 60.33
  Lower 95% CI of mean, % of control activity: 43.07
  Maximum, % of control activity: 63.01
  Mean, % of control activity: 53.68
  Median, % of control activity: 52.27
  Minimum, % of control activity: 47.18
  Upper 95% CI of mean, % of control activity: 64.29
[1]; 20 μM P1, 20 nM ALDH3A1, 1 mM benzaldehyde, 50 mM Tris-HCl pH 8.5, 50 mM 2-mercaptoethanol, NADH at 340 nm, 5 min, vs control
  Reduction in hALDH3A1 activity against benzaldehyde: ~50%
[1]; 20 μM P1, P1 Experiment 1, mean of n = 3, 1 mM benzaldehyde, 20 nM ALDH3A1, pH 8.5, 340 nm
  Enzymatic activity, % of control (Mean%): 52.2857%
[1]; 20 μM P1, P1 Experiment 2, mean of n = 3, 1 mM benzaldehyde, 20 nM ALDH3A1, pH 8.5, 340 nm
  Enzymatic activity, % of control (Mean%): 63.0078%
[1]; 20 μM P1, fourth experiment line of Sheet6, mean of n = 3, 1 mM benzaldehyde, 20 nM ALDH3A1, pH 8.5, 340 nm
  Enzymatic activity, % of control (Mean%): 47.1765%
[1]; 20 μM P1, third experiment line of Sheet6, mean of n = 3, 1 mM benzaldehyde, 20 nM ALDH3A1, pH 8.5, 340 nm
  Enzymatic activity, % of control (Mean%): 52.2481%
[1]; 20 μM P1 vs 40 μM CB29, benzaldehyde
  Effectiveness of inhibition compared with CB29: comparable to the inhibition capacity of the known hALD3A1 inhibitor CB29; also recorded: comparable with the inhibition caused by the CB29 molecule
[1]; Dunnett's multiple comparisons, 20 μM P1 or 40 μM CB29
  95,00% CI of diff, control vs. compound: 37,24 to 55,40
[1]; Dunnett's multiple comparisons, 20 μM P1 or 40 μM CB29, % of control activity
  Mean Diff, control vs. compound: 46.32
[1]; Experiment 3, 20μM P1, % of control (control = 100)
  Enzymatic Activity, AVERAGE %: 52.2481%
[1]; Experiment 3, 20μM P1, mean of triplicates, STDEV in r31
  Enzymatic Activity, AVERAGE of triplicates: 7.566 µmol/min/mg
[1]; Experiment 4, 20μM P1, % of control (control = 100)
  Enzymatic Activity, AVERAGE %: 47.1765%
[1]; Experiment 4, 20μM P1, mean of triplicates, STDEV in r31
  Enzymatic Activity, AVERAGE of triplicates: 9.945 µmol/min/mg
[1]; P1 Experiment 1, 20 μM, mean of n = 3
  Enzymatic Activity, AVERAGE of triplicates: 7.9584 µmol/min/mg
[1]; P1 Experiment 2, 20 μM, mean of n = 3
  Enzymatic Activity, AVERAGE of triplicates: 11.9878 µmol/min/mg
[2]; 4PL fit, P1 50 μg/ml coated
  Bottom, 95% CI (profile likelihood): -0,6000 to 0,3171
  HillSlope, 95% CI (profile likelihood): 0,7500 to 2,101
  LogIC50, 95% CI (profile likelihood): -2,813 to -1,638
  R squared (4PL fit): 0.9777
  Top, 95% CI (profile likelihood): 0,5633 to 0,6007
[2]; P1 50 μg/mL coated, 2-fold serial dilutions of ALDH3A1, 405 nm-650 nm
  Binding of P1 to ALDH3A1: ALDH3A1 dose-dependent increase in absorbance was observed, indicating the specific binding of P1 to ALDH3A1; also recorded: confirmed the interaction of ALDH3A1 with the synthetic peptide P1 in a concentration-dependent manner
[2]; Sigmoidal, 4PL, X is log(dilution of ALDH3A1), P1 50 μg/ml coated
  Bottom (4PL fit): 0.2386
[2]; Sigmoidal, 4PL, X is log(dilution of ALDH3A1), P1 50 μg/ml coated, OD 405nm - 650nm
  Top (4PL fit): 0.5773
[2]; [4]
  HillSlope (4PL fit): 1.408
  LogIC50 (4PL fit): -1.813
  Span (4PL fit): 0.3387
